Key:
[1] = target: T1, full-length human CSNK1A1 (Homo sapiens, UniProt P48729); assay: CSNK1A1 High ATP Assay (ADP-Glo, 1 mM ATP); format: biochemical; conditions: Table 3, read-out: CSNK1A1 high ATP assay IC50 [mol/l] (median);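 further: 30 min kinase reaction at 22 °C with 100 µM peptide substrate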
T1 construct: N-terminal Glutathion-S-Transferase (GST) and full-length human CSNK1A1; purchased Life Technologies PV4174; host or cells: baculovirus infected insect cells
Summary of the method: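 Kinase activity taken as ADP generated, quantified by ADP-Glo luminescence after 1 h ATP depletion and 1 h detection at 22 °C. Enzyme is GST–full-length human CSNK1A1 (insect cell-expressed), pre-bound to compound for 15 min, with phosphopeptide substrate and 1 mM ATP.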

[2] = target: T2, full-length human CSNK1D (Homo sapiens, UniProt P48730); assay: CSNK1D Assay (ADP-Glo, 1 μM ATP); format: biochemical; conditions: Table 3, read-out: CSNK1D IC50 [mol/l] (median)
T2 construct: N-terminal Glutathion-S-Transferase (GST) and full-length human CSNK1D; purchased Life Technologies PV3665; host or cells: baculovirus infected insect cells
Summary of the method: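 ADP-Glo luminescence reports ADP generated by GST-fused full-length human CSNK1D (insect-cell expressed, about 0.5 ng/μL) acting on a biotinylated peptide at 1 μM ATP. Test compounds were pre-bound to enzyme 15 min at 22° C in 50 mM HEPES pH 7.5.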

T1 sequence (P48729 whole entry): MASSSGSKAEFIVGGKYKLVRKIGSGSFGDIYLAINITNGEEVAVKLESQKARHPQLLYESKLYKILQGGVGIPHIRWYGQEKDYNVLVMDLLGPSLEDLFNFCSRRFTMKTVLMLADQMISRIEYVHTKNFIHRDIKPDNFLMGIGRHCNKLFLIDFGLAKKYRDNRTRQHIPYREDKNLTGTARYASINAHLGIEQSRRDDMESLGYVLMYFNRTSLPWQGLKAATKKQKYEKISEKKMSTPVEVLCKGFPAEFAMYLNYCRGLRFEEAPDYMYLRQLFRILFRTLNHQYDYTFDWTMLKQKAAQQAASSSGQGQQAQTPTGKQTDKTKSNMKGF
T2 sequence (P48730 whole entry): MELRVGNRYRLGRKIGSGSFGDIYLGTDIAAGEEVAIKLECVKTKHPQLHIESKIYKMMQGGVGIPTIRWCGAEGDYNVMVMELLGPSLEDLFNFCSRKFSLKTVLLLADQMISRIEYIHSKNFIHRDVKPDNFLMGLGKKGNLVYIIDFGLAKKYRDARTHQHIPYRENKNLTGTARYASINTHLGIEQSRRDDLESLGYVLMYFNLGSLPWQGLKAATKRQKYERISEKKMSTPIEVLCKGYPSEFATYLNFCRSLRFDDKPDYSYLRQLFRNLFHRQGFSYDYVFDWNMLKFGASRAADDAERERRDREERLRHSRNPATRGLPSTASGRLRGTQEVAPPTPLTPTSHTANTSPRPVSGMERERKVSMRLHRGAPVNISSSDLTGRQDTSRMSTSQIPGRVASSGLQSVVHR

Row | SMILES | IC50 [1] | IC50 [2]
1 | O=C(Nc1cc(-c2[nH]c3c(CC4CC4)cc(F)nc3c2-c2ccccn2)ccn1)C(CC(F)F)c1ccc(F)cc1 (single isomer, unassigned) [Example 47, (2R or S)—N-{4-[7-(cyclopropylmethyl)-5-fluoro-3-(pyridin-2-yl)-1H-pyrrolo[3,2-b]pyridin-2-yl]pyridin-2-yl}-4,4-difluoro-2-(4-fluorophenyl)butanamide] | 31.6 nM | 59 nM
2 | O=C(Nc1cc(-c2[nH]c3c(CC4CC4)cc(F)nc3c2-c2ccccn2)ccn1)C(CC(F)F)c1ccc(F)cc1 (single isomer, unassigned) [Example 48, (2R or S)—N-{4-[7-(cyclopropylmethyl)-5-fluoro-3-(pyridin-2-yl)-1H-pyrrolo[3,2-b]pyridin-2-yl]pyridin-2-yl}-4,4-difluoro-2-(4-fluorophenyl)butanamide] | 9.91 nM | 6.99 nM
3 | O=C(Nc1cc(-c2[nH]c3c(N4CCNCC4)ccnc3c2-c2ccccn2)ccn1)C(CC(F)F)c1ccc(F)cc1 (single isomer, unassigned) [Example 93, (2R or S)-4,4-difluoro-2-(4-fluorophenyl)-N-{4-[7-(piperazin-1-yl)-3-(pyridin-2-yl)-1H-pyrrolo[3,2-b]pyridin-2-yl]pyridin-2-yl}butanamide] | 5.35 nM | 17.3 nM
4 | O=C(Nc1cc(-c2[nH]c3c(N4CCNCC4)ccnc3c2-c2ccccn2)ccn1)C(CC(F)F)c1ccc(F)cc1 (single isomer, unassigned) [Example 94, (2R or S)-4,4-difluoro-2-(4-fluorophenyl)-N-{4-[7-(piperazin-1-yl)-3-(pyridin-2-yl)-1H-pyrrolo[3,2-b]pyridin-2-yl]pyridin-2-yl}butanamide] | 2.31 nM | 3.67 nM
5 | O=C(Nc1cc(-c2[nH]c3ccc(F)nc3c2-c2cc(F)ccn2)ccn1)C(CC(F)F)c1ccc(F)cc1 (single isomer, unassigned) [Example 96, (2R or S)-4,4-difluoro-N-{4-[5-fluoro-3-(4-fluoropyridin-2-yl)-1H-pyrrolo[3,2-b]pyridin-2-yl]pyridin-2-yl}-2-(4-fluorophenyl)butanamide] | 4.67 nM | 10.4 nM
6 | O=C(Nc1cc(-c2[nH]c3ccc(F)nc3c2-c2cc(F)ccn2)ccn1)C(CC(F)F)c1ccc(F)cc1 (single isomer, unassigned) [Example 97, (2R or S)-4,4-difluoro-N-{4-[5-fluoro-3-(4-fluoropyridin-2-yl)-1H-pyrrolo[3,2-b]pyridin-2-yl]pyridin-2-yl}-2-(4-fluorophenyl)butanamide] | 36 nM | 67 nM
7 | CC(C)(O)c1cc(F)nc2c(-c3ccccn3)c(-c3ccnc(NC(=O)C(CC(F)F)c4ccc(F)cc4)c3)[nH]c12 (single isomer, unassigned) [Example 99, (2R or S)-4,4-difluoro-N-{4-[5-fluoro-7-(2-hydroxypropan-2-yl)-3-(pyridin-2-yl)-1H-pyrrolo[3,2-b]pyridin-2-yl]pyridin-2-yl}-2-(4-fluorophenyl)butanamide] | 3.55 nM | 3.36 nM
8 | CC(C)(O)c1cc(F)nc2c(-c3ccccn3)c(-c3ccnc(NC(=O)C(CC(F)F)c4ccc(F)cc4)c3)[nH]c12 (single isomer, unassigned) [Example 100, (2R or S)-4,4-difluoro-N-{4-[5-fluoro-7-(2-hydroxypropan-2-yl)-3-(pyridin-2-yl)-1H-pyrrolo[3,2-b]pyridin-2-yl]pyridin-2-yl}-2-(4-fluorophenyl)butanamide] | 33.6 nM | 46.3 nM
9 | COc1cnc2c(-c3ccccn3)c(-c3ccnc(NC(=O)C(CC(F)F)c4ccc(F)cc4)c3)[nH]c2n1 (single isomer, unassigned) [Example 102, 4,4-difluoro-2-(4-fluorophenyl)-N-{4-[3-methoxy-7-(pyridin-2-yl)-5H-pyrrolo[2,3-b]pyrazin-6-yl]pyridin-2-yl}butanamide] | 31.1 nM | 75 nM
10 | COc1cnc2c(-c3ccccn3)c(-c3ccnc(NC(=O)C(CC(F)F)c4ccc(F)cc4)c3)[nH]c2n1 (single isomer, unassigned) [Example 103, 4,4-difluoro-2-(4-fluorophenyl)-N-{4-[3-methoxy-7-(pyridin-2-yl)-5H-pyrrolo[2,3-b]pyrazin-6-yl]pyridin-2-yl}butanamide] | 1.97 nM | 4.3 nM
11 | O=C(Nc1cc(-c2[nH]c3c(C4CCCO4)cc(F)nc3c2-c2ccccn2)ccn1)C(CC(F)F)c1ccc(F)cc1 (single isomer, unassigned) [Example 115, (2R or S)-4,4-difluoro-N-(4-{5-fluoro-7-[(2R or S)-oxolan-2-yl]-3-(pyridin-2-yl)-1H-pyrrolo[3,2-b]pyridin-2-yl}pyridin-2-yl)-2-(4-fluorophenyl)butanamide] | 23.1 nM | 7.02 nM
12 | O=C(Nc1cc(-c2[nH]c3c(C4CCCO4)cc(F)nc3c2-c2ccccn2)ccn1)C(CC(F)F)c1ccc(F)cc1 (single isomer, unassigned) [Example 116, (2R or S)-4,4-difluoro-N-(4-{5-fluoro-7-[(2R or S)-oxolan-2-yl]-3-(pyridin-2-yl)-1H-pyrrolo[3,2-b]pyridin-2-yl}pyridin-2-yl)-2-(4-fluorophenyl)butanamide] | 13.2 nM | 4.25 nM
13 | O=C(Nc1cc(-c2[nH]c3c(C4CCCO4)cc(F)nc3c2-c2ccccn2)ccn1)C(CC(F)F)c1ccc(F)cc1 (single isomer, unassigned) [Example 117, (2R or S)-4,4-difluoro-N-(4-{5-fluoro-7-[(2R or S)-oxolan-2-yl]-3-(pyridin-2-yl)-1H-pyrrolo[3,2-b]pyridin-2-yl}pyridin-2-yl)-2-(4-fluorophenyl)butanamide] | 3570 nM | 28 nM
14 | O=C(Nc1cc(-c2[nH]c3c(C4CCCO4)cc(F)nc3c2-c2ccccn2)ccn1)C(CC(F)F)c1ccc(F)cc1 (single isomer, unassigned) [Example 118, (2R or S)-4,4-difluoro-N-(4-{5-fluoro-7-[(2R or S)-oxolan-2-yl]-3-(pyridin-2-yl)-1H-pyrrolo[3,2-b]pyridin-2-yl}pyridin-2-yl)-2-(4-fluorophenyl)butanamide] | 6660 nM | 125 nM
15 | O=C(Nc1cc(-c2[nH]c3nccnc3c2-c2ccccn2)ccn1)C(CC(F)(F)F)c1ccc(F)cc1 (single isomer, unassigned) [Example 120, (2R or S)-4,4,4-trifluoro-2-(4-fluorophenyl)-N-{4-[7-(pyridin-2-yl)-5H-pyrrolo[2,3-b]pyrazin-6-yl]pyridin-2-yl}butanamide] | 35.8 nM | 4.35 nM
16 | O=C(Nc1cc(-c2[nH]c3nccnc3c2-c2ccccn2)ccn1)C(CC(F)(F)F)c1ccc(F)cc1 (single isomer, unassigned) [Example 121, (2R or S)-4,4,4-trifluoro-2-(4-fluorophenyl)-N-{4-[7-(pyridin-2-yl)-5H-pyrrolo[2,3-b]pyrazin-6-yl]pyridin-2-yl}butanamide] | 946 nM | 62.9 nM
17 | O=C(Nc1cc(-c2[nH]c3c(OCC(F)(F)F)ncnc3c2-c2ccccn2)ccn1)C(CC(F)F)c1ccc(F)cc1 (single isomer, unassigned) [Example 123, (2R or S)-4,4-difluoro-2-(4-fluorophenyl)-N-{4-[7-(pyridin-2-yl)-4-(2,2,2-trifluoroethoxy)-5H-pyrrolo[3,2-d]pyrimidin-6-yl]pyridin-2-yl}butanamide] | 14 nM | 4.49 nM

From patent US12692261B2, “Substituted heterocyclic compounds and therapeutic uses thereof” (Bayer Aktiengesellschaft, priority 2020, dated 2026)
